Experimental findings from patent publication US20230302131A1, “MPC INHIBITION FOR PRODUCING T-CELLS WITH A MEMORY PHENOTYPE” (UNIVERSITÉ DE LAUSANNE, priority 2020, published 2023) are described below.

The test system of the test is B16 melanoma tumors expressing HER2. Kind of test: HER2-CAR T cell production with UK5099 and adoptive transfer into mice with B16 tumors expressing HER2. It counts as in vivo, mouse. How it is done:
For each retroviral preparation, 8×10^6 Phoenix ECO cells (ATCC, CRL-3214) were plated in a T150 tissue culture flask in RPMI medium supplemented with 10% FCS, 10 mM HEPES and 50 U/ml Penicillin-Streptomycin. On the next day, cells were transfected with 21 μg of the retroviral construct with Turbofect transfection reagent (Thermo Fischer Scientific), according to the manufacturer protocol. The medium was changed daily and collected at 48 h and 72 h post transfection. 48 h and 72 h virus supernatants were pooled and sedimented at 22000rcf for 2 h at 4° C. Finally, retrovirus pellets were resuspended in 2 ml of full RPMI medium and divided in 8 aliquots of 250 μl each, which were snap-frozen on dry ice and stored at −80° C.
Spleens from wild type CD45.1.2 mice were smashed on a 70 µm cell strainer. CD8 T cells were purified using the EasySep™ Mouse CD8+ T Cell Isolation Kit (StemCell) according to the manufacturer protocol. 0.5×10^6 CD8 T cells were plated in 48 well plates in 0.5 ml of complete RPMI 1640 medium supplemented with 10% FCS, antibiotics and 50 IU/ml of recombinant human IL-2, and exposed to either DMSO or 20 μM UK5099. Mouse T-cells were activated with Activator CD3/CD28 Dynabeads (Gibco) at a ratio of 2 beads per cell. Retroviral infection was conducted at 37° C. for 24 h. Untreated 48-well plates were coated for 24 h with […] of recombinant human fibronectin (Takara Clontech) at 4° C., followed by PBS 2% BSA for 30 min at RT and finally washed with PBS. One aliquot of concentrated retroviruses was plated in each fibronectin-coated 48-well plates and centrifuged for 90 min at 2000rcf and 32° C. Then, 0.5×10^6 of 24 h-activated CD8 T cells were added on top of the viruses and spun for 10 min at 400rcf and 32° C. On day 3, the medium was replaced with 10 IU/ml recombinant human IL-2, 10 ng/ml recombinant human IL-7 and 10 ng/ml recombinant human IL-15, containing either DMSO or 20 μM UK5099. Cells were then split every second day.
CD45.2 C57BL/6 mice were engrafted subcutaneously with 4×10^5 B16F10 tumors modified to express HER2. Six days later, mice were lymphodepleted with 100 mg/kg cyclophosphamide (Sigma Aldrich, C7397) injected i.p., and homogeneous groups were constituted with regard to tumor volume. T cells (5×10^6) were adoptively transferred i.v. on the next day. Tumor volumes were measured three times a week with a caliper and calculated using the formula: V=π×[d2×D]/6, where d is the minor tumor axis and D is the major tumor axis. Tumors were collected and separated from skin. Single cell suspensions were obtained with the Mouse Tumor Dissociation Kit (Miltenyi, 130-096-730) according to the manufacturer protocol. Spleen and draining lymph node were smashed on a 70 µm cell strainer. Single cell suspensions were stained with antibodies before flow cytometry analysis.
Polyclonal CD8 T cells from wild type mice were activated in the presence of DMSO or 20 μM UK5099 and then retrovirally transduced with a control blue fluorescent protein-expressing retroviral construct (BFP) or with HER2-CAR (FIG. 6A). […] More UK5099-HER2CAR T cells were engrafted in the tumor-draining lymph nodes, while CAR T cell numbers in the spleen were similar (FIGS. 6C and 6D). […] As in the spleen, more tumor-infiltrating UK5099-treated CAR T cells expressed TCF1 (FIG. 6G). […] Finally, fewer UK5099-treated CAR T cells were expressing the inhibitory molecules PD1 and TIM3, indicating a less exhausted phenotype (FIG. 6J).

Where [1] appears, read: 20 μM during production, vs DMSO.
Where [2] appears, read: co-expression of TCF1 with PD1, vs DMSO.

Structures are written as SMILES.

`N#CC(=Cc1cn(-c2ccccc2)c2ccccc12)C(=O)O` [UK5099, 2-cyano-3-(1-phenyl-1H-indol-3-yl)-2-propenoic acid]: under setting [1], the “CAR T cell numbers in the spleen” value is listed as “similar”, the “HER2CAR T cells engrafted in the tumor-draining lymph nodes” value was “More” and the “percentage of splenic HER2CAR T cells expressing TCF1” value is recorded as “higher percentage”. Also, the “tumor growth after HER2CAR T cell ACT” value (CAR T cells produced with 20 μM UK5099, 5×10^6 T cells i.v.) is recorded as “significantly suppress tumor growth”. In addition, under setting [2], the “progenitor exhausted T cells (TCF1-positive) among CAR T cells in the tumor” value is “more” and the “terminally differentiated exhausted T cells (TCF1-negative) among CAR T cells in the tumor” value is on record as “less”. Further, the “CAR T cells expressing the inhibitory molecules PD1 and TIM3” value (in the tumor, vs DMSO) is listed as “fewer”. Further, under “per mg of tumor, vs DMSO”, the “CAR T cells in tumors” value is reported as “significantly more”. Also, for the setting “vs DMSO”, the “tumor-infiltrating CAR T cells expressing TCF1” value is listed as “more”.
